This note sets out measurements from patent US9631001B2, “Peptide antagonists of the vasopressin-2 receptor” (COMMISSARIAT A L'ENERGIE ATOMIQUE ET AUX ENERGIES …, priority 2012, dated 2017).

Structures are written as SMILES.

What all share (experiment): IonWorks electrophysiological assay
Assay type in all cases: cell-based
What all share (conditions): 1 μM

In one series the target is T1, Cav1.2 (Homo sapiens, UniProt Q13936).
T1 construct: expressed in transfected cells
On the procedure: (§1) The stock solution was transferred to a master plate and into assay plates where 2 μl per well of the solution were placed. On the day of the assay, 198 μl of external solution containing the appropriate DMSO concentration was added and mixed thoroughly. This provided a 1:100 dilution. A further 1:3 dilution occurred upon addition to the cells in the IonWorks, giving a 1:300 dilution in total. On each assay plate, at least 8 wells were reserved for vehicle control (0.3% DMSO) and at least 8 wells for each positive control specific to the cell line tested. The positive controls were tested at a maximal blocking and an approximate IC50 concentration. The compounds used for positive controls: Nav1.5 100 μM and 5 mM Lidocaine, Kv4.3/KChIP2 20 μM and 500 μM Quinidine, Cav1.2 1 μM and 100 μM Nitrendipine, Kv1.5 300 μM and 10 mM 4-AP, KCNQ1/minK 10 μM and 100 μM Chromanol 293B, hERG 0.1 μM and 1 μM Cisapride, HCN4 50 μM and 3 mM Cesium, Kir2.1 20 μM and 500 μM Barium.

The target of the next series is T2, HCN4 (Homo sapiens, UniProt Q9Y3Q4).
T2 construct: expressed in transfected cells
T2 sequence (Q9Y3Q4 1-1203): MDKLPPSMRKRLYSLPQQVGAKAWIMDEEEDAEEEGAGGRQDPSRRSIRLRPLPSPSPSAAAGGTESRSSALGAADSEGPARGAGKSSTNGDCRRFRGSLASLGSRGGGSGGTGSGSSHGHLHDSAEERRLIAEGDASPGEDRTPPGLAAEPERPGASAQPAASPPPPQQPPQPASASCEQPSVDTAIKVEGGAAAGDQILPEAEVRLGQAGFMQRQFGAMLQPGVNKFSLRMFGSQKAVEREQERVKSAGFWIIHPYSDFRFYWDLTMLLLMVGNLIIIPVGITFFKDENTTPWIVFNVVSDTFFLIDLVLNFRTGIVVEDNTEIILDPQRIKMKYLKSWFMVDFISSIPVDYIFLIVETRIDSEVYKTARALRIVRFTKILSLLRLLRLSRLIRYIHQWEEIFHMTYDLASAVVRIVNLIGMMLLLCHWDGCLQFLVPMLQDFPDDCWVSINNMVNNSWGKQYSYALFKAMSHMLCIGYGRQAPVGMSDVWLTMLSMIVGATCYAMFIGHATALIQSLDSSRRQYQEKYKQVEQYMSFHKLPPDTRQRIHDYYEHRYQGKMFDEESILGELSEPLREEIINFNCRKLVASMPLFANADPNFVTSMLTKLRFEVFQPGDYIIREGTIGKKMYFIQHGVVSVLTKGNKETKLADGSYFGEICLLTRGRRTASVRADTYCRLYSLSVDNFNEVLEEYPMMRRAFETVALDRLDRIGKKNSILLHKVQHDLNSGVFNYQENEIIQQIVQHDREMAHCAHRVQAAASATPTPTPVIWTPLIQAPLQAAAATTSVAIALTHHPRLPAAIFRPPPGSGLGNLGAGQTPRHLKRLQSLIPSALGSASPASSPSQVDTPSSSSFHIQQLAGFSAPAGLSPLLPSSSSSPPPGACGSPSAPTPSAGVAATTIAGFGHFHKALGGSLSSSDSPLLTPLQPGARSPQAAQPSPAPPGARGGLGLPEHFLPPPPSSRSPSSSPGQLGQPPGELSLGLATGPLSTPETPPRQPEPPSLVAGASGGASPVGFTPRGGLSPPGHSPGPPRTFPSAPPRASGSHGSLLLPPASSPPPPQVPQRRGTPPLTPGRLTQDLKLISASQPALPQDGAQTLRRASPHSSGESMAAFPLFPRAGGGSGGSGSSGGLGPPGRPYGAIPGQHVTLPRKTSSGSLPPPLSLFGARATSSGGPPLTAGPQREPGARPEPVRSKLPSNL
The method, then:
as §1

For another series, the target named is T3, Kv4.3/KChIP2 (Homo sapiens, UniProt Q9UK17).
T3 construct: expressed in transfected cells
T3 sequence (Q9UK17 1-655): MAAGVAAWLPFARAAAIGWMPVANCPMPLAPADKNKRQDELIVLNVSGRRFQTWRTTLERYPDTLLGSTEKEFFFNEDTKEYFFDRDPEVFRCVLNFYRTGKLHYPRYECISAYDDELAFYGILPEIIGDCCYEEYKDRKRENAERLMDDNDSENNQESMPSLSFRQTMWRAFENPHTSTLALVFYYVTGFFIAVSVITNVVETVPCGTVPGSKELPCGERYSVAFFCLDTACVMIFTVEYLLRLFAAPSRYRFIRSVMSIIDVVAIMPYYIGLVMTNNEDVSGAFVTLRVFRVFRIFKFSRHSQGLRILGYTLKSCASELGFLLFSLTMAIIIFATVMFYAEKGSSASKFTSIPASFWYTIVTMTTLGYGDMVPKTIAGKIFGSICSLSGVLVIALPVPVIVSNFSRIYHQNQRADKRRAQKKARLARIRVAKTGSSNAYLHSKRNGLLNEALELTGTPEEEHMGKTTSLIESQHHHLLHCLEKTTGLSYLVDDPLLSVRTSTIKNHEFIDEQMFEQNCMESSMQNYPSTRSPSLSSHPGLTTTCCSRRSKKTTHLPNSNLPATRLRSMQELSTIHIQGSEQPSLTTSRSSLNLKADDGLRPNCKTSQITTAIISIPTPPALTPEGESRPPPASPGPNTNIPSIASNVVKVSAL
T3 sequence (Q9NS61 1-270 partner): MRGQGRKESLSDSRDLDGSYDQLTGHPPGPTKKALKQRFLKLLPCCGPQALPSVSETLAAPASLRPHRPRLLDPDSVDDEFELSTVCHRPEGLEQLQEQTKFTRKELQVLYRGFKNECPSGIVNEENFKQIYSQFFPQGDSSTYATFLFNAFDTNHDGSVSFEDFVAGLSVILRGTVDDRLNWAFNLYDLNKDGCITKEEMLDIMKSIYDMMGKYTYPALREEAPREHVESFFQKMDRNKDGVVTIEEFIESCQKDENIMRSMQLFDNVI
On the procedure:
as §1

For a further series, the target named is T4, Nav1.5 (Homo sapiens, UniProt Q14524).
T4 construct: expressed in transfected cells
On the procedure: as §1

T1 sequence (Q13936 whole entry): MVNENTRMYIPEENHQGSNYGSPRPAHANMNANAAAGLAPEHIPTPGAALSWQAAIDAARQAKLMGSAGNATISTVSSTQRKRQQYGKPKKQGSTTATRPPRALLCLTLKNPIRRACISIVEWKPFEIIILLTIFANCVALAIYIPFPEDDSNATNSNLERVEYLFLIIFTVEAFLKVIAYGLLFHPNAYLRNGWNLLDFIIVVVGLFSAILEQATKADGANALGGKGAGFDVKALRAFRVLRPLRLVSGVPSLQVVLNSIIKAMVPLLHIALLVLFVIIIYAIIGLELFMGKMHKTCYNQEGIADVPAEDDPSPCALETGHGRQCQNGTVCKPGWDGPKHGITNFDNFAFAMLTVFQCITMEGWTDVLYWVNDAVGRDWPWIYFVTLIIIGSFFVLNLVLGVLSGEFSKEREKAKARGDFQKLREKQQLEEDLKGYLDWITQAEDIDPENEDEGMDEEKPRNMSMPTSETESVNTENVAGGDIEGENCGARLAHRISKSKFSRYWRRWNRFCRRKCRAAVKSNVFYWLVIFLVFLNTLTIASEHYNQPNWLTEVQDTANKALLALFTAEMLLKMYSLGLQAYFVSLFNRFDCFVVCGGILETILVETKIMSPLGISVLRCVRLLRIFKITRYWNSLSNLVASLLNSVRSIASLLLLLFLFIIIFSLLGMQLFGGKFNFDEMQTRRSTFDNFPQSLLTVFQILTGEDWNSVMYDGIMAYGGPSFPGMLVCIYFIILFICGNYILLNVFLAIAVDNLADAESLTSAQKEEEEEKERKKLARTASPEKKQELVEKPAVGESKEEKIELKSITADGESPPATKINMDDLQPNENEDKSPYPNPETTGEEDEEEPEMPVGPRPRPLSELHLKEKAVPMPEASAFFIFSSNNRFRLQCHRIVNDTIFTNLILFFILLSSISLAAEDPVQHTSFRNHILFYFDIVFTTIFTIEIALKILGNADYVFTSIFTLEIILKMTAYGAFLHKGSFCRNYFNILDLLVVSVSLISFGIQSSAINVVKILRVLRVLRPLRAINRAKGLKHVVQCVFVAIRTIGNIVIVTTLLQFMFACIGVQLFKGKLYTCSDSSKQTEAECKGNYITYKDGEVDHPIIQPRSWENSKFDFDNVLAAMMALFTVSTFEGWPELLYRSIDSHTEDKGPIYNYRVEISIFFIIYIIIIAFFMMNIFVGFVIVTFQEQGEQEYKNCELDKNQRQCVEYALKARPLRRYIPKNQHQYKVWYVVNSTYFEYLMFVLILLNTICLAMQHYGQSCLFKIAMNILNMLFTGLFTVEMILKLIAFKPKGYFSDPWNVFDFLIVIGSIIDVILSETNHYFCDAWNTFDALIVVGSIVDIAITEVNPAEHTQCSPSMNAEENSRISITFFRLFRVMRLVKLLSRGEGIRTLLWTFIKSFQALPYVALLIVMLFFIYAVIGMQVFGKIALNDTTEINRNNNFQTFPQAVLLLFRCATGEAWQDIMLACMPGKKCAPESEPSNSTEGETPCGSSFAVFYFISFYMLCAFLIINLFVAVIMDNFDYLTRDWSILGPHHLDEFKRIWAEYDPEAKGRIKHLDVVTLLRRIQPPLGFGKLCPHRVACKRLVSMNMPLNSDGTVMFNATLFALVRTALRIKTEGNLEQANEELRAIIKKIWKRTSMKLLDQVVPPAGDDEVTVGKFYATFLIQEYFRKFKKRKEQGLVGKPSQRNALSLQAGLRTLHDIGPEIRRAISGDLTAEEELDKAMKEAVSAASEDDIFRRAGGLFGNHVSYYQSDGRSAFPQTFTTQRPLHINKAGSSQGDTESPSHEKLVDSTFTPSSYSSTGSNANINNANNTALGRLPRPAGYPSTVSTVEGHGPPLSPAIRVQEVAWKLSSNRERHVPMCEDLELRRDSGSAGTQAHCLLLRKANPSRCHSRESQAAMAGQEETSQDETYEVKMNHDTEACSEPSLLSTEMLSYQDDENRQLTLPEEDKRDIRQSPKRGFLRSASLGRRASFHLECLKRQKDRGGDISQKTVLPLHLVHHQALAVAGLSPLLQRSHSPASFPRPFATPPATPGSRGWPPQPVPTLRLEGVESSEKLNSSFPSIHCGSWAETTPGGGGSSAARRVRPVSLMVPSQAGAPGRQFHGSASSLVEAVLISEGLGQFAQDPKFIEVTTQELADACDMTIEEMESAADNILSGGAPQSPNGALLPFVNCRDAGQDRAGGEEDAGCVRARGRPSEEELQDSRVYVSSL
T1 sequence (Q08289 whole entry partner): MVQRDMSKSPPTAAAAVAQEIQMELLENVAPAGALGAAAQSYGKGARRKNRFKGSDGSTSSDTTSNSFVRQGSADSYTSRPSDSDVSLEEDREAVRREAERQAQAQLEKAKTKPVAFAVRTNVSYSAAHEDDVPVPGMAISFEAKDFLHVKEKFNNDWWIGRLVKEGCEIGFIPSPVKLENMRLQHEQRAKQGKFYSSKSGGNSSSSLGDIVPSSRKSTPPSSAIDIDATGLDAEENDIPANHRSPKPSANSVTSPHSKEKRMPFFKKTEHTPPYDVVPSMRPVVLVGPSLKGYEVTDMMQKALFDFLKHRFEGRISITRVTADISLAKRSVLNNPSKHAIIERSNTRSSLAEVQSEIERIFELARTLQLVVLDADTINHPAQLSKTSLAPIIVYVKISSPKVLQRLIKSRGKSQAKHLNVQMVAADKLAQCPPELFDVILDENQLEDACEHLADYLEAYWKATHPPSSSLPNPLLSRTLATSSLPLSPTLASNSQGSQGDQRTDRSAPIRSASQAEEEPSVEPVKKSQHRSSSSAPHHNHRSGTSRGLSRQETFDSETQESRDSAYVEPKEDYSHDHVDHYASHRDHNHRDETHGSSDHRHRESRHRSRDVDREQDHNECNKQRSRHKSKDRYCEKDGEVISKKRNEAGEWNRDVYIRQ
T1 sequence (P54289 25-956 partner limits assumed): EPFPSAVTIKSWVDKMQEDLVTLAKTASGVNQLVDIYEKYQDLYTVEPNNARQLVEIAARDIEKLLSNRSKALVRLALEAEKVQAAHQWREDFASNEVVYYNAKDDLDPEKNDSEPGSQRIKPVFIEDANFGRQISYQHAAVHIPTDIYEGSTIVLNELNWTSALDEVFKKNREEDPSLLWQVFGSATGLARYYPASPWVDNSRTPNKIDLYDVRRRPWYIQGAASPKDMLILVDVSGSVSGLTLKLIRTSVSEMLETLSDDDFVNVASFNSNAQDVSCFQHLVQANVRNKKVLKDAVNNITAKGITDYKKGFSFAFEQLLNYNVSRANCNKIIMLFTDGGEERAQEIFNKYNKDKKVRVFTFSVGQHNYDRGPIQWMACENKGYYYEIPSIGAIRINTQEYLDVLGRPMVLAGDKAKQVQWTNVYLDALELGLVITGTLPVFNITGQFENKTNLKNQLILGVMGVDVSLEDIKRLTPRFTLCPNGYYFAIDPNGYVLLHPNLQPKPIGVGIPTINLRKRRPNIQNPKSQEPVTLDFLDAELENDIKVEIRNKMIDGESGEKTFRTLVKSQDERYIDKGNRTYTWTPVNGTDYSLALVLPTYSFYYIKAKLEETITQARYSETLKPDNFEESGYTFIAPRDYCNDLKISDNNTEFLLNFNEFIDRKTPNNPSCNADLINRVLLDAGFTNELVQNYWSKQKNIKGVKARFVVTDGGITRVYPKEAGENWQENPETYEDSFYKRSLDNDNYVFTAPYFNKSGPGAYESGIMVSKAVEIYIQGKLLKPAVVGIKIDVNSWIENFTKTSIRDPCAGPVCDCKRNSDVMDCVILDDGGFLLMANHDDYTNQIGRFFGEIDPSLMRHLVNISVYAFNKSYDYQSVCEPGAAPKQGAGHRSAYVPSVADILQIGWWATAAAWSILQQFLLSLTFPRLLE
T1 sequence (P54289 957-1103 partner limits assumed): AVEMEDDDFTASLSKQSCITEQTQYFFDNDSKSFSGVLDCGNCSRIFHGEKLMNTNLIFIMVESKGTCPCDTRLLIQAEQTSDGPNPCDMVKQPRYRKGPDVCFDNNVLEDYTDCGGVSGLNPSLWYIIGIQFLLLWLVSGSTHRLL

On to `CC[C@H](C)[C@@H]1NC(=O)[C@H]([C@@H](C)O)NC(=O)[C@H](CO)NC(=O)[C@H](Cc2ccccc2)NC(=O)[C@H](CCCNC(=N)N)NC(=O)[C@H](CC(N)=O)NC(=O)[C@H](C)NC(=O)[C@H](CC(N)=O)NC(=O)CNC(=O)[C@H](CCCCN)NC(=O)[C@@H]2CSSC[C@@H]3NC(=O)[C@@H]4CCCN4C(=O)CNC(=O)[C@@H]4CCCN4C(=O)[C@H](CCCCN)NC(=O)[C@H](C(C)C)NC(=O)[C@@H]4CCCN4C(=O)[C@H](CC(C)C)NC(=O)[C@H](CC(N)=O)NC(=O)[C@@H](NC(=O)[C@H](Cc4ccccc4)NC(=O)[C@H](CO)NC(=O)[C@@H]4CCCN4C(=O)[C@@H](N)CCCNC(=N)N)CSSC[C@@H](C(=O)N[C@H](C(=O)NCC(=O)O)C(C)C)NC(=O)[C@H]([C@@H](C)O)NC(=O)[C@H](CCCNC(=N)N)NC(=O)[C@H](CCCNC(=N)N)NC(=O)[C@H](CSSC[C@H](NC(=O)[C@H](CCCCN)NC(=O)[C@H](CC(N)=O)NC(=O)[C@H]([C@@H](C)O)NC(=O)[C@H](CCCCN)NC(=O)[C@H](CCC(N)=O)NC(=O)[C@H](CO)NC(=O)[C@H](Cc4ccc(O)cc4)NC(=O)[C@H](Cc4ccc(O)cc4)NC(=O)[C@H](Cc4ccccc4)NC(=O)[C@H](C)NC(=O)[C@H](CO)NC(=O)[C@H](Cc4ccccc4)NC(=O)[C@H](Cc4ccccc4)NC(=O)CNC(=O)[C@H](CC(N)=O)NC3=O)C(=O)N[C@@H](Cc3c[nH]cn3)C(=O)N[C@@H](CO)C(=O)N[C@@H](Cc3ccccc3)C(=O)N[C@@H]([C@@H](C)O)C(=O)N[C@@H](Cc3ccc(O)cc3)C(=O)NCC(=O)NCC(=O)N2)NC(=O)[C@H](CCCCN)NC(=O)[C@H](CCC(=O)O)NC1=O` [U-Da2a], for which the “inhibition of Cav1.2” value against Cav1.2 was “did not appear to exhibit significant inhibition”. Also, at HCN4, the “inhibition of HCN4” value is on record as “did not appear to exhibit significant inhibition”. The “inhibition of Kv4.3/KChIP2” value on Kv4.3/KChIP2 is “did not appear to exhibit significant inhibition”. The “inhibition of Nav1.5” value against Nav1.5 is given as “did not appear to exhibit significant inhibition”.
